Data set [1] relates to collagen type II-induced arthritis (CIA). The note with it: mouse, in vivo.
In a further data set the test system is DTH response in mice. Format: in vivo. To be noted: for Inhibition of mouse ear swelling: DTH, 24 h after challenge. The protocol: The anti-inflammatory and anti-allergic effects of compounds 1a and 1c were assessed in a mouse model of skin delayed-type hypersensitivity (DTH) reactions and compared to a vehicle control and to the reference drug dexamethasone. DTH reactions are antigen-specific cell-mediated immune responses, driven primarily by T helper type 1 (Th1) cells, similar to the tuberculin immunization response. The immune reaction induced by an ovalbumin challenge to animals previously sensitized with ovalbumin in Complete Freund's Adjuvant, is characterized by swelling (edema) at the site of challenge, e.g. the mouse ear. Dexamethasone, an anti-inflammatory steroid, reduces cell-mediated immune responses and was employed to validate the responsiveness of the assay to pharmacological treatment.
Female BALB/cJW mice were bred at the University of Lodz, Lodz, Poland and housed in groups of 8 in makrolon cages with a 12 h light-dark cycle. Mice were given free access to food (Agropol S.j., Motycz, Poland) and water.
Sensitization: The protein antigen, ovalbumin, was reconstituted in PBS at 4 mg/ml. An ovalbumin-CFA emulsion was prepared by mixing the protein solution with the CFA suspension at a ratio of 1:1, using two Luer-lock syringes. The emulsion was tested by putting a drop of emulsion onto PBS; if the emulsion remained as a tight droplet on the PBS, the emulsion was deemed ready. Mice were sensitized by subcutaneously injecting 25 μL of emulsion into each side of the tail (100 μg ovalbumin per mouse).
Challenge: On the sixth day after sensitization, DTH was elicited by challenging animals subcutaneously (gauge 30 needle, B. Braun Melsungen, Melsungen, Germany) in the left ears with 10 μL of a 1% suspension of heat-aggregated ovalbumin (HOVA) (100 μg ovalbumin per mouse). The right ears were administered subcutaneously with PBS and served to determine the individual differences in ear thicknesses. HOVA was prepared by heating a 5% solution of ovalbumin in saline for 1 h at 80° C. with occasional swirling. After cooling to room temperature and centrifugation (400 g. 10 min at 4° C.), the pellet was washed twice with saline, resuspended at 2% in PBS and aliquots stored at −30° C. Before injection, HOVA was diluted with an equal volume of PBS and sonicated. Ear thickness was measured with a precise spring-loaded caliper (Art. No. 7309, Mitutoyo, Kawasaki, Japan) before challenge, and 24 h after challenge.
Sensitization, challenge and ear thickness measurement were performed under anesthesia (ketamine 80 mg/kg plus xylazine 8 mg/kg, intraperitoneally).
The anti-inflammatory effects of compounds 1a and 1c were compared to a vehicle control (0.5% methyl cellulose solution) and to the reference drug, dexamethasone. Test compounds were given at 25 or 100 mg/kg orally by gavage (Art. No. 432093, Harvard Apparatus GmbH, March-Hugstetten, Germany) 16 h and 3 h before sensitization and then twice daily with the final dose given 3 h prior to ear challenge (a total of 14 administrations). Dexamethasone was given at 0.1 or 1 mg/kg orally by gavage 3 h before sensitization and once daily with the final dose given 3 h prior to antigen challenge (a total of 7 administrations). All administrations were given in a volume of 10 ml/kg.
To account for individual variability, the increase in right ear thickness, before and 24 h after administration of PBS, was subtracted from the HOVA-induced increase in left ear thickness. The increase in ear thickness was calculated by the difference between ear thickness before and 24 h after antigen challenge. Percent inhibition of ear swelling was calculated according to the following formula: % inhibition=100×(IETvehicle−IETcompound)/IETvehicle where IET=(ET24 hrs pc−ETpredose)HOVA-treated ears−(ET24 hrs pc−ETpredose)PBS-treated ears • (IET, increase ear thickness; ET, ear thickness; pc, post challenge)
Mean and standard deviation (SD) were calculated from individual ear edema values. […]

Data set [2] has as its system allergic contact dermatitis response in mice. The data set can be described thus: Allergic contact dermatitis (TDI) model in mice, mouse ear swelling test. Format: in vivo. The protocol:
The anti-inflammatory and anti-allergic effects of compounds 1a and 1c were assessed in a mouse model of allergic contact dermatitis, a response driven primarily by T helper type 2 (Th2) cells. […] In this model, an allergic dermatitis response is obtained by sensitizing mice to TDI and subsequently challenging them with antigen by topical administration onto the ears. A quantitative assessment of anti-inflammatory and anti-allergic effects of topically or orally administered test compounds is possible by measuring the resulting ear swelling. The advantages of the allergic contact dermatitis model (Zöllner et al., Bioessays 26:693-6 (2004)) are reproducibility and reliability (>90% of BALB/c mice respond to sensitization), a short induction protocol, quantitative assessment by measuring ear thickness, atopic dermatitis-like skin lesions can be induced, and clinically relevant pharmaceuticals, such as corticosteroids, calcineurin-inhibitors and PDE4-inhibitors, are effective in this model.
Female BALB/c-mice were obtained from Charles River (Sulzfeld, Germany) at age 8 weeks. All animals were housed in groups of eight per cage at 22° C. with a 12 h light/dark-cycle, Water and a standard diet (Altromin, Lage/Lippe, Germany) were available ad libitum. All animals were acclimatized for one week before experimental procedures were commenced.
Experimental procedures for BALB/c mice housing, TDI sensitization and challenge, and measurement of ear thickness were performed as previously described (Baumer et al., J Pharm Pharmacol, 55:1107-1114 (2003)) with the following modifications. For active sensitization, 100 μL of 5% (w/v) TDI was administered to the shaved and stripped abdominal epidermis on day one, and for the next three consecutive days, 50 μL of 5% (My) TDI was applied. The allergic reaction was boosted 21 days later by application of 50 μL of 0.5% (w/v) TDI. For the examination of test compound effects, the left ears were used for the TDI challenge (20 μL of 0.5% in acetone) and ear thickness measured 3 h before and 24 h after challenge.
Group size was n=7 mice unless otherwise stated. Test compounds were freshly prepared before administration.
Administration time: to determine optimal time for administration treatment groups were treated orally by gavage with 100 mg/kg of compound 1a or 1c (suspended in 0.5% tylose, 10 mL/kg) 1, 4 or 16 h before topical TDI challenge. One group was treated with 100 mg/kg miltefosine orally, 16 h before challenge (based on available data for optimal administration time for miltefosine) and vehicle treated mice received tylose (10 mL/kg) orally, 4 h before challenge.
Dose-response: two groups of mice were treated orally with compound 1a at 25 mg/kg or 100 mg/kg suspended in 0.5% tylose, 4 h before topical TDI challenge. Vehicle treated mice received 0.5% tylose orally 4 h before challenge. As a positive control, dexamethasone was administered in saline solution at 1 mg/kg or 3 mg/kg, 2 h and 30 min before challenge and 1 h after challenge. The dose and dosing scheme for dexamethasone was based on previous experience showing a maximal effect in this model.
Compound 1a was administered to two groups of mice topically in 20 μl of a 2% or 6% solution in propyleneglycol. The suspension was heated to 60° C. and mixed using a thermomixer (Eppendorf) until it became clear. The solution was applied, 2 h before topical TDI challenge by administration of 10 μl onto each of the inner and outer surfaces of the left ears. A vehicle group (17=5) was treated with propyleneglycol. As a positive control, diflorasone, diacetate was administered at 0.01% (low dose) and 0.05% (high dose) in 20 μl acetone, 2 h before challenge. A basal control group was left untreated.
Mean and standard error of the mean (SEM) were calculated from individual ear edema values. […]

The subject of data set [3] is RBL-2H3 cells. The data set can be described thus: Inhibition of mast cell degranulation (β-hexosaminidase release). Format: cell-based. The note with it: Rattus norvegicus, IgE-sensitized RBL-2H3 cells, 1 h with compound, antigen (DNP-HSA) 15 min. The source says:
Mast cells are key effector cells involved in allergic and inflammatory diseases, and the Rat Basophilic Leukemia clone 2H3 (RBL-2H3) cell line is a commonly used model of allergen dependent immune modulator release (degranulation) in mast cells. On their surface, they express the high affinity receptor for IgE (FcεRI). Upon binding of antigen-specific IgE to the receptor, cells become sensitized to the IgE specific antigen (allergen). When IgE-sensitized cells then encounter multivalent antigen, the antigen clusters IgE-FcεRI complexes and initiates a signal transduction cascade that leads to degranulation, that is, the release of inflammatory mediators, such as cytokines, eicosanoids, histamine and enzymes. The assay can be used as a screening method to identify immune-modulating compounds, in particular compounds useful in the medical management of allergic and inflammatory diseases and asthma, β-hexosaminidase was previously shown to be released with the same kinetics as histamine (Schwartz et al., J Immunology; 123:1445-1450 (1979)), thus offering a simple means to monitor degranulation. […]
MUG substrate solution, 100 μl, were added to supernatant and lysate samples and plates were incubated 30 min at 37° C. […] Fluorescence was measured at 365 nm excitation and 440 nm emission wavelengths. […]

The subject of data set [4] is RBL-2H3 cells. In words: Maximum tolerated concentration (cytotoxicity by lactate dehydrogenase release). In kind it is cell-based, Rat. The source says: The safety index (SI) of a test compound is the ratio between the maximum tolerated concentration and the IC50 and is used as a measure of the relative safety of the test compound.

Several values for one entry are separate records, joined by “and”; a condition that tells them apart may be missing. Identical values can stand only once. Like-named read-outs stand apart in the source and are kept apart here. Marks after values point to notes of the source that are not given here.

As to `C[C@@H]1C[C@H]2[C@@H]3CCC4=CC(=O)C=C[C@]4(C)[C@@]3(F)[C@@H](O)C[C@]2(C)[C@@]1(O)C(=O)CO` [Dexamethasone, reference compound], the “spleen and thymus weights” value in data set [1] is on record as “markedly reduced”. Besides, the “Inhibition of mouse ear swelling” value in the data set on DTH response in mice (0.1 mg/kg orally once daily (7 administrations)) is reported as 14%; in the data set with DTH response in mice (1.0 mg/kg orally once daily (7 administrations)), 53%; in data set [2] (dose-response study, 1 mg/kg, 2 h and 30 min before and 1 h after challenge) it was 78.6*** %; in data set [2] (dose-response study, 1 mg/kg, 2 h and 30 min before and 1 h after challenge, listed as dexamethasone), 78%; in data set [2] (dose-response study, 3 mg/kg, 2 h and 30 min before and 1 h after challenge), 87.1*** %; in data set [2] (dose-response study, 3 mg/kg, 2 h and 30 min before and 1 h after challenge, listed as dexamethasone), 87%. The “loss in body weight” value in the data set on DTH response in mice (mouse, in vivo, po, 1 mg/kg) turned out to be 9%.

Broadly, the IC50 is the concentration at which inhibition is half-maximal. `CCCCCCCCCCCCCCCCOP(=O)([O-])OCC[N+](C)(C)C` [Miltefosine, reference compound]: the IC50 with RBL-2H3 cells [3] was 4.2 µM. In addition, the “MTC (maximum tolerated concentration)” value with RBL-2H3 cells [4] (highest concentration not causing cytotoxicity (LDH release), RBL-2H3 cells) was 25 µM. Also, the “SI (safety index)” value in the data set on RBL-2H3 cells [4] (ratio between MTC and IC50) is listed as 6.0. Moreover, the “inhibitory efficacy relative to that of 1a at its optimal administration time of 4 h” value in data set [2] (100 mg/kg oral, 16 h before challenge vs 1a 4 h) came out at 64%. For the same molecule, the “inhibitory efficacy relative to that of compound 1c at its optimal administration time of 4 h” value in data set [2] (100 mg/kg oral, 16 h before challenge vs 1c 4 h) worked out at 69%. In data set [2] (administration time study, 100 mg/kg oral, 16 h before TDI challenge), the “Inhibition of mouse ear swelling” value is 47% and 47.3^§ %.

These data come from patent publication US11453642B2, “Oxygenated amino- or ammonium-containing sulfonic acid, phosphonic acid and carboxylic acid derivatives and their medical use” (GRI BIO, INC., priority 2011, dated 2022).
